Patent publication US20160304861A1, “SPATIAL MULTIPLEXING FOR MULTISIGNAL CELLULAR IMAGING” (Massachusetts Institute of Technology, priority 2015, published 2016)

Tested on: Gcamp6f sensor cluster in HEK293 cells
Test: Gcamp6f sensor cluster response to ionomycin treatment in HEK293 cells
Type: cell-based
Conditions: 20 mM ionomycin in DMSO added at around 2 minutes, FIG. 1C
Description: HEK cells were transfected with the TransIT®-293 transfection reagent (Minis). Cells were plated in a 24-well plate, transfected with 50 ng plasmids per well after 18-24 hours plating, and imaged 24 hours after transfection. Mouse neurons were transfected with the calcium phosphate transfection kit (Invitrogen). Neurons were plated in a 24-well plate, transfected 96 hours after plating with 1500 ng plasmids per well and were imaged at least 48 hours after transfection. For co-transfection in neurons, two plasmids were mixed as 1:1 ratio, maintaining a total of 1500 ng plasmids per well. For HEK experiments, NucBlue Life cell stain and ReadyProbes reagent (Life Technologies) were added to stain the nucleus. Mfn1-null MEF cells (ATCC® CRL-2992™) were plated in a 24-well glass-bottom plate with 50-70% cell confluency. Plasmids were then transfected with a mixture of 200 ng plasmid and […] Trans-IT X2 (Mirus) per well. Transfected cells were incubated at 37° C. for 48-72 hours to establish the expression.
An inverted epi-fluorescence Nikon Ti Eclipse equipped with SPECTRA X light engine (LumenCor), Zyla5.5 camera (Andor), 100× 1.45 NA oil objective lens (Nikon), 20× 0.75 NA objective lens (Nikon), and standard CFP-YFP FRET filter sets (Semrock) were used to image the fluorescent patterns. FRET imaging typically lasts for 10 min. […]

For C[C@H](CCC(=O)O)C[C@H](C)C[C@H](C)C(=O)/C=C(\O)[C@H](C)C[C@H](C)C/C=C/[C@@H](C)[C@@H](O)[C@@H](C)[C@@H](O)C[C@@H]1CC[C@@](C)([C@H]2CC[C@@](C)([C@@H](C)O)O2)O1 [ionomycin], the “fluorescence by the Gcamp6f sensor cluster” value was “incrase in fluorescence”.
